We go through 34 compounds from patent publication US20060240048A1 (priority 2002, published 2006).

The assay concerns the target T1, human cannabinoid CB2 receptor (Homo sapiens, UniProt P34972).
T1 construct: expressed in transfected cells; host or cells: Saccharomyces cerevisiae strain MMY23
Briefly: Cannabinoid CB2 receptor agonist activity, yeast reporter assay (FDGlu fluorescence).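 As to Emax: 100% equals maximal response of reference agonist HU210.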 The conditions noted are these: for Emax: read-out: efficacy value (Emax) at the cloned human cannabinoid CB2 receptor. The assay is classed as cell-based. For orientation: A reporter such as luciferase makes a cellular process visible.

Each structure is given as a SMILES string.

In general, EC50 refers to the concentration that produces a half-maximal response. The term Emax denotes the greatest response seen or fitted, relative to the assay's reference.

T1 sequence (P34972 whole entry): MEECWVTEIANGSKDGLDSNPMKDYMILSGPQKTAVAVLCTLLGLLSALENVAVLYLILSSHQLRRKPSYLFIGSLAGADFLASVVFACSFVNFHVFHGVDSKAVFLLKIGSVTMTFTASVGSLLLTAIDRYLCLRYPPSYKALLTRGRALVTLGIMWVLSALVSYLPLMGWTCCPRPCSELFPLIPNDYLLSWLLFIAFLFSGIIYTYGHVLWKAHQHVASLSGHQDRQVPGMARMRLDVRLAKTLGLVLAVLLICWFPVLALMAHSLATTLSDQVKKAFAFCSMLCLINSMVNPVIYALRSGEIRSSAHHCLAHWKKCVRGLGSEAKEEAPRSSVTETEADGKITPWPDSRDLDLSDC

For the compound `Cc1cc(C#N)ccc1Nc1cc(C(C)C)c(C(=O)NCC2CCOCC2)cn1` [Example 220, 6-(4-Cyano-2-methyl-phenylamino)-4-isopropyl-N-(tetrahydro-pyran-4-ylmethyl)-nicotinamide], the EC50 is less than 300 nM and the Emax is greater than 50%.
For the compound `CC(C)c1cc(Nc2cc(Cl)ccc2C#N)ncc1C(=O)NCC1CCOCC1` [Example 221, 6-(S-Chloro-2-cyano-phenylamino)-4-isopropyl-N-(tetrahydro-pyran-4-ylmethyl)-nicotinamide], the EC50 was 300 to 1000 nM and the Emax is less than 30%.
`CC(C)c1cc(Nc2cccc(Cl)c2)ncc1C(=O)NCC1CCS(=O)(=O)C1` (centres unmarked) [Example 223, 6-(3-Chloro-phenylamino)-N-(1,1-dioxo-tetrahydro-1/^6-thiophen-3-ylmethyl)-4-isopropyl-nicotinamide]: the EC50 is less than 300 nM and the Emax is greater than 50%.
`CC(C)c1cc(Nc2cccc(OC(F)(F)F)c2)ncc1C(=O)NCC1CCC1` [Example 224, N-Cyclobutylmethyl-4-isopropyl-6-(3-trifluoromethoxy-phenylamino)-nicotinamide]: the EC50 was less than 300 nM and the Emax was greater than 50%.
As for `Cc1ccc(Br)cc1Nc1cc(C(C)C)c(C(=O)NCC2CCOCC2)cn1` [Example 234, 6-(5-Bromo-2-methyl-phenylamino)-4-isopropyl-N-(tetrahydro-pyran-4-ylmethyl)-nicotinamide], the EC50 was less than 300 nM and the Emax is greater than 50%.
Regarding `CC(C)c1cc(Nc2cc(F)ccc2Br)ncc1C(=O)NCC1CCOCC1` [Example 235, 6-(2-Bromo-5-fluoro-phenylamino)-4-isopropyl-N-(tetrahydro-pyran-4-ylmethyl)-nicotinamide], the EC50 was less than 300 nM and the Emax is greater than 50%.
For `CC(C)c1cc(Nc2cc(C(F)(F)F)ccc2F)ncc1C(=O)NCC1CCOCC1` [Example 236, 6-(2-Fluoro-5-trifluoromethyl-phenylamino)-4-isopropyl-N-(tetrahydro-pyran-4-ylmethyl)-nicotinamide] the same measures were less than 300 nM and greater than 50%.
Turning to `CC(C)c1cc(Nc2cc(C(F)(F)F)ccc2Cl)ncc1C(=O)NCC1CCOCC1` [Example 237, 6-(2-Chloro-5-trifluoromethyl-phenylamino)-4-isopropyl-N-(tetrahydro-pyran-4-ylmethyl)-nicotinamide], the 50% effective concentration (EC50) is less than 300 nM and the Emax was greater than 50%.
`CC(C)c1cc(Nc2cc(C(F)(F)F)ccc2Br)ncc1C(=O)NCC1CCOCC1` [Example 238, 6-(2-Bromo-5-trifluoromethyl-phenytamino)-4-isopropyl-N-(tetrahydro-pyran-4-ylmethyl)-nicotinamide]: the EC50 was less than 300 nM and the Emax was greater than 50%.
With `CC(C)c1cc(Nc2ccc(C#N)c(Br)c2)ncc1C(=O)NCC1CCOCC1` [Example 239, 6-(3-Bromo-4-cyano-phenylamino)-4-isopropyl-N-(tetrahydro-pyran-4-ylmethyl)-nicotinamide], the EC50 is less than 300 nM and the Emax was greater than 50%.
With `CC(C)c1cc(Nc2ccc(OC(F)(F)F)cc2Br)ncc1C(=O)NCC1CCOCC1` [Example 240, 6-(2-Bromo-4-trifluoromethoxy-phenylamino)-4-isopropyl-N-(tetrahydro-pyran-4-ylmethyl)-nicotinamide], the EC50 is less than 300 nM and the Emax was greater than 50%.
As to `Cc1c(Cl)cccc1Nc1cc(C(C)C)c(C(=O)NCC2CCOCC2)cn1` [Example 241, 6-(3-Chloro-2-methyl-phenylamino)-4-isopropyl-N-(tetrahydro-pyran-4-ylmethyl)-nicotinamide], the EC50 was less than 300 nM and the Emax is greater than 50%.
`CC(C)c1cc(Nc2cc(F)cc(F)c2)ncc1C(=O)NCC1CCOCC1` [Example 242, 6-(3,5-Difluoro-phenylamino)-4-isopropyl-N-(tetrahydro-pyran-4-ylmethyl)-nicotinamide]: the EC50 was less than 300 nM and the Emax was greater than 50%.
Turning to `CC(C)c1cc(Nc2ccc(F)cc2Cl)ncc1C(=O)NCC1CCOCC1` [Example 243, 6-(2-Chloro-4-fluoro-phenylamino)-4-isopropyl-N-(tetrahydro-pyran-4-ylmethyl)-nicotinamide], the EC50 was less than 300 nM and the Emax was greater than 50%.
The like results for `Cc1cc(Cl)ccc1Nc1cc(C(C)C)c(C(=O)NCC2CCOCC2)cn1` [Example 244, 6-(4-Chloro-2-methyl-phenylamino)-4-isopropyl-N-(tetrahydro-pyran-4-ylmethyl)-nicotinamide] were, in that order, less than 300 nM and greater than 50%.
For `CC(C)c1cc(Nc2cccc(C(F)(F)F)c2F)ncc1C(=O)NCC1CCCC1` [Example 245, 6-(2-Fluoro-3-trifluoromethyl-phenylamino)-N-cyclopentylmethyl-4-isopropyl-nicotinamide] the same measures were less than 300 nM and greater than 50%.
In the case of `Cc1cc(Cl)ccc1Nc1cc(C(C)C)c(C(=O)NCC2CCCC2)cn1` [Example 246, 6-(2-Methyl-4-chloro-phenylamino)-N-cyclopentylmethyl-4-isopropyl-nicotinamide], the EC50 was less than 300 nM and the Emax is greater than 50%.
With `CC(C)c1cc(Nc2ccc(C#N)c(Cl)c2)ncc1C(=O)NCC1CCCC1` [Example 247, 6-(3-Chloro-4-cyano-phenytamino)-N-cyclopentylmethyl-4-isopropyl-nicotinamide], the EC50 is less than 300 nM and the Emax was greater than 50%.
For `CC(C)c1cc(Nc2ccc(Br)cc2Cl)ncc1C(=O)NCC1CCCC1` [Example 248, 6-(4-bromo-2-chlorophenylamino)-N-cyclopentylmethyl-4-isopropyl-nicotinamide], the EC50 was less than 300 nM and the Emax is greater than 50%.
Take `CC(C)c1cc(Nc2ccc(F)cc2F)ncc1C(=O)NCC1CCC1` [Example 249, N-Cyclobutylmethyl-6-(2,4-difluoro-phenylamino)-4-isopropyl-nicotinamide]: the EC50 is less than 300 nM and the Emax was greater than 50%.
For `CC(C)c1cc(Nc2ccc(Cl)cc2Cl)ncc1C(=O)NCC1CCC1` [Example 250, N-Cyclobutylmethyl-6-(2,4-dichloro-phenylamino)-4-isopropyl-nicotinamide], the EC50 is less than 300 nM and the Emax is greater than 50%.
Take `CC(C)c1cc(Nc2ccc(Cl)c(Cl)c2)ncc1C(=O)NCC1CCC1` [Example 251, N-Cyclobutylmethyl-6-(3,4-dichtoro-phenylamino)-4-isopropyl-nicotinamide]: the EC50 was less than 300 nM and the Emax is greater than 50%.
Consider `CC(C)c1cc(Nc2cccc(Cl)c2Cl)ncc1C(=O)NCC1CCC1` [Example 252, N-Cyclobutylmethyl-6-(2,3-dichloro-phenylamino)-4-isopropyl-nicotinamide], for which the concentration for a half-maximal effect (EC50) was less than 300 nM and the maximal effect (Emax) was greater than 50%.
On to `CC(C)c1cc(Nc2ccc(F)cc2Cl)ncc1C(=O)NCC1CCC1` [Example 253, 6-(2-Chloro-4-fluoro-phenylamino)-N-cyclobutylmethyl-4-isopropyl-nicotinamide], for which the EC50 is less than 300 nM and the Emax was greater than 50%.
The like results for `CC(C)c1cc(Nc2ccc(F)c(Cl)c2)ncc1C(=O)NCC1CCC1` [Example 254, 6-(3-Chloro-4-fluoro-phenylamino)-N-cyclobutylmethyl-4-isopropyl-nicotinamide] were, in that order, less than 300 nM and greater than 50%.
Turning to `CC(C)c1cc(Nc2ccc(Br)cc2Cl)ncc1C(=O)NCC1CCC1` [Example 255, 6-(4-Bromo-2-chloro-phenylamino)-N-cyclobutylmethyl-4-isopropyl-nicotinamide], the EC50 is less than 300 nM and the Emax was greater than 50%.
Regarding `CC(C)c1cc(Nc2ccc(Cl)cc2Br)ncc1C(=O)NCC1CCC1` [Example 256, 6-(2-Bromo-4-chloro-phenylamino)-N-cyclobutylmethyl-4-isopropyl-nicotinamide], the EC50 was less than 300 nM and the Emax is greater than 50%.
Consider `CC(C)c1cc(Nc2cccc(C(F)(F)F)c2F)ncc1C(=O)NCC1CCC1` [Example 257, N-cyclobutylmethyl-6-(2-fluoro-3-trifluoromethyl-phenylamino)-4-isopropyl-nicotinamide], for which the EC50 was less than 300 nM and the Emax is greater than 50%.
For `Cc1cc(Cl)ccc1Nc1cc(C(C)C)c(C(=O)NCC2CCC2)cn1` [Example 258, 6-(4-Chloro-2-methyl-phenylamino)-N-cyclobutylmethyl-4-isopropyl-nicotinamide], the EC50 was less than 300 nM and the Emax was greater than 50%.
For the compound `CC(C)c1cc(Nc2ccc(C#N)cc2Cl)ncc1C(=O)NCC1CCC1` [Example 259, 6-(2-Chloro-4-cyano-phenylamino)-N-cyclobutylmethyl-4-isopropyl-nicotinamide], the EC50 was less than 300 nM and the Emax is greater than 50%.
Consider `CC(C)c1cc(Nc2ccc(C#N)cc2F)ncc1C(=O)NCC1CCC1` [Example 260, 6-(4-Cyano-2-fluoro-phenylamino)-N-cyclobutylmethyl-4-isopropyl-nicotinamide], for which the EC50 is less than 300 nM and the Emax was greater than 50%.
In the case of `Cc1cc(C#N)ccc1Nc1cc(C(C)C)c(C(=O)NCC2CCC2)cn1` [Example 261, 6-(4-Cyano-2-methyl-phenylamino)-N-cyclobutylmethyl-4-isopropyl-nicotinamide], the EC50 was less than 300 nM and the Emax is greater than 50%.
As for `CC(C)c1cc(Nc2ccc(C(F)(F)F)cc2Cl)ncc1C(=O)NCC1CCC1` [Example 262, 6-(2-Chloro-4-trifluoromethyl-phenylamino)-N-cyclobutylmethyl-4-isopropyl-nicotinamide], the EC50 was less than 300 nM and the Emax is greater than 50%.
Turning to `CC(C)c1cc(Nc2cc(Cl)cc(Cl)c2)ncc1C(=O)NCC1CCC1` [Example 263, N-Cyclobutylmethyl-6-(3,5-dichloro-phenylamino)-4-isopropyl-nicotinamide], the concentration giving a half-maximal response (EC50) is less than 300 nM and the Emax is greater than 50%.
